Source: patent publication US7109193B2, “Tricyclic diazepines tocolytic oxytocin receptor antagonists” (Wyeth, priority 2001, dated 2006)

Target: T1, human oxytocin receptor (Homo sapiens, UniProt P30559)
T1 construct: host or cells: CHO cells (pcDNA3.1 vector)
T1 sequence (P30559 1-389): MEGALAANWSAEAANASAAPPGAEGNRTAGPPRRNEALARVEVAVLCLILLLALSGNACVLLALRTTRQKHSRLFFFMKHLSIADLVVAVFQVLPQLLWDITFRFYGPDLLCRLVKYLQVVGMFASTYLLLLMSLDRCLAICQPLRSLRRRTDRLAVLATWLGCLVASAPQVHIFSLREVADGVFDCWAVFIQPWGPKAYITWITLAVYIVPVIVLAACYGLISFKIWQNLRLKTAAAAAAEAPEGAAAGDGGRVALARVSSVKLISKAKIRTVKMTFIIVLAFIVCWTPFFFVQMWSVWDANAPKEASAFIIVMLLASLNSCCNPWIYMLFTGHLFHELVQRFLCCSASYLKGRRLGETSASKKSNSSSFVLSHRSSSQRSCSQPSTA
Test: Oxytocin binding in Chinese Hamster Ovary cell membranes expressing human oxytocin receptors
Conditions: 100 nM, CHO cell membranes, [3H]oxytocin, values without parentheses, read-out: OT % inhibition @ 100% nM

Work on COc1ccccc1-c1ccc(C(=O)N2Cc3ccc(C(=O)N[C@@H]4CN5CCC4CC5)n3Cc3ccccc32)cc1C [Example 295, N-[(3S)-1-Azabicyclo[2.2.2]oct-3-yl]-10-[(2′-methoxy-2-methyl[1,1′-biphenyl]-4-yl)carbonyl]-10,11-dihydro-5H-pyrrolo[2,1-c][1,4]benzodiazepine-3-carboxamide] yielded an inhibition at 0.1 µM of 79%.

Work on COc1cccc(-c2ccc(C(=O)N3Cc4ccc(C(=O)N5CCCN(C)CC5)n4Cc4ccccc43)cc2C)c1 [Example 64, {10-[(3′-Methoxy-2-methyl[1,1′-biphenyl]-4-yl)carbonyl]-10,11-dihydro-5H-pyrrolo[2,1-c][1,4]benzodiazepin-3-yl}(4-methyl-1,4-diazepan-1-yl)methanone] yielded an inhibition at 0.1 µM of 74%.

With COc1ccccc1-c1ccc(C(=O)N2Cc3ccc(C(=O)N4CCCN(C)CC4)n3Cc3ccccc32)cc1C [Example 62, {10-[(2′-Methoxy-2-methyl[1,1′-biphenyl]-4-yl)carbonyl]-10,11-dihydro-5H-pyrrolo[2,1-c][1,4]benzodiazepin-3-yl}(4-methyl-1,4-diazepan-1-yl)methanone] the inhibition at 0.1 µM was 91%.

COc1ccccc1-c1ccc(C(=O)N2Cc3ccc(C(=O)N[C@H]4CN5CCC4CC5)n3Cc3ccccc32)cc1OC [Example 299, N-[(3R)-1-Azabicyclo[2.2.2]oct-3-yl]-10-[(2,2′-dimethoxy[1,1′-biphenyl]-4-yl)carbonyl]-10,11-dihydro-5H-pyrrolo[2,1-c][1,4]benzodiazepine-3-carboxamide] gave an inhibition at 0.1 µM of 86%.

Cc1ccccc1-c1ccc(C(=O)N2Cc3ccc(C(=O)NCCCN(C)C)n3Cc3ccccc32)cc1C [Example 73, N-[3-(Dimethylamino)propyl]-10-[(2,2′-dimethyl[1,1′-biphenyl]-4-yl)carbonyl]-10,11-dihydro-5H-pyrrolo[2,1-c][1,4]benzodiazepine-3-carboxamide] was tested, and the inhibition at 0.1 µM was 85%.

Cc1ccccc1-c1ccc(C(=O)N2Cc3ccc(C(=O)N4CCN(C)CC4)n3Cc3ccccc32)cc1C [Example 50, {10-[(2,2′-Dimethyl[1,1′-biphenyl]-4-yl)carbonyl]-10,11-dihydro-5H-pyrrolo[2,1-c][1,4]benzodiazepin-3-yl}(4-methyl-1-piperazinyl)methanone] gave an inhibition at 0.1 µM of 95%.

COc1cc(C(=O)N2Cc3ccc(C(=O)N4CCN(CCN(C)C)CC4)n3Cc3ccccc32)ccc1-n1c(C)ccc1C [Example 316, {4-[2-(Dimethylamino)ethyl]-1-piperazinyl}{10-[4-(2,5-dimethyl-1H-pyrrol-1-yl)-3-methoxybenzoyl]-10,11-dihydro-5H-pyrrolo[2,1-c][1,4]benzodiazepin-3-yl}methanone] showed an inhibition at 0.1 µM of 24%.

In the case of COc1cccc(-c2cc(OC)c(C(=O)N3Cc4ccc(C(=O)N[C@@H](Cc5c[nH]cn5)C(N)=O)n4Cc4ccccc43)cc2Cl)c1 [Example 287, N-[(1S)-2-Amino-1-(1H-imidazol-4-ylmethyl)-2-oxoethyl]-10-[(6-chloro-3,3′-dimethoxy[1,1′-biphenyl]-4-yl)carbonyl]-10,11-dihydro-5H-pyrrolo[2,1-c][1,4]benzodiazepine-3-carboxamide], the inhibition at 0.1 µM is reported as 88%.

In the case of COc1ccccc1-c1ccc(C(=O)N2Cc3ccc(C(=O)N4CCN(C)CC4)n3Cc3ccccc32)cc1OC [Example 56, {10-[(2,2′-Dimethoxy[1,1′-biphenyl]-4-yl)carbonyl]-10,11-dihydro-5H-pyrrolo[2,1-c][1,4]benzodiazepin-3-yl}(4-methyl-1-piperazinyl)methanone], the inhibition at 0.1 µM is reported as 68%.

Work on CCOc1ccccc1-c1cc(OC)c(C(=O)N2Cc3cccn3Cc3ccccc32)cc1Cl [Example 17, 10-{[6-Chloro-3-methoxy-2′-ethoxy[1,1′-biphenyl]-4-yl]carbonyl}-10,11-dihydro-5H-pyrrolo[2,1-c][1,4]benzodiazepine] yielded an inhibition at 0.1 µM of 28%.

Work on COc1ccccc1-c1ccc(C(=O)N2Cc3ccc(C(=O)n4ccnc4)n3Cc3ccccc32)cc1C [Example 292, 1H-Imidazol-1-yl-{10-[(2′-methoxy-2-methyl[1,1′-biphenyl]-4-yl)carbonyl]-10,11-dihydro-5H-pyrrolo[2,1-c][1,4]benzodiazepin-3-yl}methanone] yielded an inhibition at 0.1 µM of 69%.

Compound COc1cc(C(=O)N2Cc3ccc(C(=O)N4CCCN(C)CC4)n3Cc3ccccc32)ccc1-c1ccccc1C [Example 66, {10-[(2-Methoxy-2′-methyl[1,1′-biphenyl]-4-yl)carbonyl]-10,11-dihydro-5H-pyrrolo[2,1-c][1,4]benzodiazepin-3-yl}(4-methyl-1,4-diazepan-1-yl)methanone] has an inhibition at 0.1 µM of 87%.

For COc1cc(C(=O)N2Cc3ccc(C(=O)N4CCCN(C)CC4)n3Cc3ccccc32)ccc1-n1c(C)ccc1C [Example 307, {10-[4-(2,5-Dimethyl-1H-pyrrol-1-yl)-3-methoxybenzoyl]-10,11-dihydro-5H-pyrrolo[2,1-c][1,4]benzodiazepin-3-yl}(4-methyl-1,4-diazepan-1-yl)methanone], the inhibition at 0.1 µM was 30%.

Work on COc1cc(C(=O)N2Cc3ccc(C(=O)n4ccnc4)n3Cc3ccccc32)ccc1-c1ccccc1C [Example 290, 1H-Imidazol-1-yl-{10-[(2-methoxy-2′-methyl[1,1′-biphenyl]-4-yl)carbonyl]-10,11-dihydro-5H-pyrrolo[2,1-c][1,4]benzodiazepin-3-yl}methanone] yielded an inhibition at 0.1 µM of 78%.

COc1cccc(-c2ccc(C(=O)N3Cc4ccc(C(=O)N5CCN(C)CC5)n4Cc4ccccc43)cc2OC)c1 [Example 57, {10-[(2,3′-Dimethoxy[1,1′-biphenyl]-4-yl)carbonyl]-10,11-dihydro-5H-pyrrolo[2,1-c][1,4]benzodiazepin-3-yl}(4-methyl-1-piperazinyl)methanone] gave an inhibition at 0.1 µM of 76%.

In the case of COc1cc(C(=O)N2Cc3ccc(C(=O)N4CCC(N5CCCCC5)CC4)n3Cc3ccccc32)ccc1-n1c(C)ccc1C [Example 311, {10-[4-(2,5-Dimethyl-1H-pyrrol-1-yl)-3-methoxy-benzoyl]-10,11-dihydro-5H-pyrrolo[2,1-c][1,4]benzodiazepin-3-yl}[4-(1-piperidinyl)-1-piperidinyl]-methanone], the inhibition at 0.1 µM is reported as 16%.

In the case of COc1cc(C(=O)N2Cc3ccc(C(=O)n4ccnc4)n3Cc3ccccc32)ccc1-c1cccc2ccccc12 [Example 291, 1H-Imidazol-1-yl-{10-[3-methoxy-4-(1-naphthyl)benzoyl]-10,11-dihydro-5H-pyrrolo[2,1-c][1,4]benzodiazepin-3-yl}methanone], the inhibition at 0.1 µM is reported as 32%.

Cc1ccccc1-c1ccc(C(=O)N2Cc3ccc(C(=O)N4CCN(C)CC4)n3Cc3ccccc32)cc1 [Example 52, {10-[(2′-Methyl[1,1′-biphenyl]-4-yl)carbonyl]-10,11-dihydro-5H-pyrrolo[2,1-c][1,4]benzodiazepin-3-yl}(4-methyl-1-piperazinyl)methanone] was tested, and the inhibition at 0.1 µM was 86%.

Work on COc1cccc(-c2cc(OC)c(C(=O)N3Cc4ccc(C(=O)N5CCN(C)CC5)n4Cc4ccccc43)cc2Cl)c1 [Example 54, {10-[(6-Chloro-3,3′-dimethoxy[1,1′-biphenyl]-4-yl)carbonyl]-10,11-dihydro-5H-pyrrolo[2,1-c][1,4]benzodiazepin-3-yl}(4-methyl-1-piperazinyl)methanone] yielded an inhibition at 0.1 µM of 78%.

COc1cccc(-c2ccc(C(=O)N3Cc4ccc(C(=O)n5ccnc5)n4Cc4ccccc43)cc2C)c1 [Example 289, 1H-Imidazol-1-yl-{10-[(3′-methoxy-2-methyl[1,1′-biphenyl]-4-yl)carbonyl]-10,11-dihydro-5H-pyrrolo[2,1-c][1,4]benzodiazepin-3-yl}methanone] was tested, and the inhibition at 0.1 µM was 45%.

COc1cc(C(=O)N2Cc3ccc(C(=O)N4CCN(C)CC4)n3Cc3ccccc32)ccc1-n1c(C)ccc1C [Example 306, {10-[4-(2,5-Dimethyl-1H-pyrrol-1-yl)-3-methoxybenzoyl]-10,11-dihydro-5H-pyrrolo[2,1-c][1,4]benzodiazepin-3-yl}(4-methyl-1-piperazinyl)methanone] was tested, and the inhibition at 0.1 µM was 34%.

For COc1cc(C(=O)N2Cc3ccc(C(=O)NCCC4CCCN4C)n3Cc3ccccc32)ccc1-n1c(C)ccc1C (centres unmarked) [Example 315, 10-[4-(2,5-Dimethyl-1H-pyrrol-1-yl)-3-methoxybenzoyl]-N-[2-(1-methyl-2-pyrrolidinyl)ethyl]-10,11-dihydro-5H-pyrrolo[2,1-c][1,4]benzodiazepine-3-carboxamide], the inhibition at 0.1 µM was 10%.

Cc1ccccc1-c1ccc(C(=O)N2Cc3ccc(C(=O)NCCCN(C)C)n3Cc3ccccc32)cc1 [Example 76, N-[3-(Dimethylamino)propyl]-10-[(2′-methyl[1,1′-biphenyl]-4-yl)carbonyl]-10,11-dihydro-5H-pyrrolo[2,1-c][1,4]benzodiazepine-3-carboxamide] showed an inhibition at 0.1 µM of 65%.

Cc1cc(C(=O)N2Cc3cccn3Cc3ccccc32)ccc1-c1ccncc1 [Example 31, [3-Methyl-4-(4-pyridinyl)phenyl]-[10,11-dihydro-5H-pyrrolo[2,1-c][1,4]benzodiazepin-10-yl]methanone] showed an inhibition at 0.1 µM of 69%.

With COc1ccccc1-c1ccc(C(=O)N2Cc3ccc(C(=O)NCCCN(C)C)n3Cc3ccccc32)cc1 [Example 75, N-[3-(Dimethylamino)propyl]-10-[(2′-methoxy[1,1′-biphenyl]-4-yl)carbonyl]-10,11-dihydro-5H-pyrrolo[2,1-c][1,4]benzodiazepine-3-carboxamide] the inhibition at 0.1 µM was 66%.

In the case of COc1ccccc1-c1ccc(C(=O)N2Cc3ccc(C(=O)N[C@@H]4CN5CCC4CC5)n3Cc3ccccc32)cc1OC [Example 300, N-[(3S)-1-Azabicyclo[2.2.2]oct-3-yl]-10-[(2,2′-dimethoxy[1,1′-biphenyl]-4-yl)carbonyl]-10,11-dihydro-5H-pyrrolo[2,1-c][1,4]benzodiazepine-3-carboxamide], the inhibition at 0.1 µM is reported as 72%.
